System: MV-4-11 cells
Test: Gene expression microarray analysis (Affymetrix PrimeView) and GSEA
Format: cell-based, human
Set-up: RFU PODN (11730768_x_at) / Fold change /veh PODN (11730768_x_at) / RFU LINC00158 (11744669_a_at) / Fold change /veh LINC00158 (11744669_a_at) / RFU DUSP10 (11751237_a_at) / Fold change /veh DUSP10 (11751237_a_at) / RFU ID3 (11757404_x_at) / Fold change /veh ID3 (11757404_x_at) / RFU PLEKHG5 (11737974_s_at) / Fold change /veh PLEKHG5 (11737974_s_at) / RFU LRRC4B (11730491_at) / Fold change /veh LRRC4B (11730491_at) / RFU GIMAP4 (11747438_a_at) / Fold change /veh GIMAP4 (11747438_a_at) / RFU KRT8 (11758183_x_at) / Fold change /veh KRT8 (11758183_x_at) / RFU CNN1 (11734310_a_at) / Fold change /veh CNN1 (11734310_a_at) / RFU VPS37D (11726825_at) / Fold change /veh VPS37D (11726825_at) / RFU C10orf10 (11716522_x_at) / Fold change /veh C10orf10 (11716522_x_at) / RFU KIR2DL2 /// KIR2DL4 /// KIR2DL5A /// KIR2DL5B /// KIR2DS1 /// KIR2DS2 /// KIR2DS3 /// KIR2DS4 /// KIR3DL3 /// KIR3DL3 /// KIR3DS1 (11738374_at) / Fold change /veh KIR2DL2 /// KIR2DL4 /// KIR2DL5A /// KIR2DL5B /// KIR2DS1 /// KIR2DS2 /// KIR2DS3 /// KIR2DS4 /// KIR3DL3 /// KIR3DL3 /// KIR3DS1 (11738374_at) / RFU C1QL1 (11718748_at) / Fold change /veh C1QL1 (11718748_at) / RFU TMPRSS4 (11747572_a_at) / Fold change /veh TMPRSS4 (11747572_a_at) / RFU HAMP (11756126_x_at) / Fold change /veh HAMP (11756126_x_at) / RFU RNFT2 (11725882_a_at) / Fold change /veh RNFT2 (11725882_a_at) / RFU NR4A2 (11747474_a_at) / Fold change /veh NR4A2 (11747474_a_at) / RFU ABCC12 (11746883_a_at) / Fold change /veh ABCC12 (11746883_a_at) / RFU TMEM136 (11760407_x_at) / Fold change /veh TMEM136 (11760407_x_at) / RFU CLDN22 /// WWC2 (11732394_at) / Fold change /veh CLDN22 /// WWC2 (11732394_at) / RFU HLA-DPB1 (11760878_x_at) / Fold change /veh HLA-DPB1 (11760878_x_at) / RFU SPINT1 (11716480_a_at) / Fold change /veh SPINT1 (11716480_a_at) / RFU GAP43 (11754022_s_at) / Fold change /veh GAP43 (11754022_s_at) / RFU A4GNT (11735810_at) / Fold change /veh A4GNT (11735810_at) / RFU PRB3 (11715151_x_at) / Fold change /veh PRB3 (11715151_x_at) / RFU TUBB4B (11761932_at) / Fold change /veh TUBB4B (11761932_at) / RFU CAPN14 (11732068_a_at) / Fold change /veh CAPN14 (11732068_a_at) / RFU TMCC2 (11721928_a_at) / Fold change /veh TMCC2 (11721928_a_at) / RFU IRGQ (11745062_a_at) / Fold change /veh IRGQ (11745062_a_at) / RFU FAM174B (11720279_a_at) / Fold change /veh FAM174B (11720279_a_at) / RFU TMPRSS4 (11748680_a_at) / Fold change /veh TMPRSS4 (11748680_a_at) / RFU FAM212B (11763350_a_at) / Fold change /veh FAM212B (11763350_a_at) / RFU PLEKHG5 (11743358_a_at) / Fold change /veh PLEKHG5 (11743358_a_at) / RFU ZSCAN30 (11745921_a_at) / Fold change /veh ZSCAN30 (11745921_a_at) / RFU CMKLR1 (11741424_a_at) / Fold change /veh CMKLR1 (11741424_a_at) / RFU LOC101060620 /// MAPK8IP1 (11723275_at) / Fold change /veh LOC101060620 /// MAPK8IP1 (11723275_at) / RFU SPTSSB (11747773_x_at) / Fold change /veh SPTSSB (11747773_x_at) / RFU PRSS12 (11739890_at) / Fold change /veh PRSS12 (11739890_at) / RFU BIN1 (11741810_x_at) / Fold change /veh BIN1 (11741810_x_at) / RFU WNT11 (11732464_a_at) / Fold change /veh WNT11 (11732464_a_at) / RFU C10orf10 (11716521_a_at) / Fold change /veh C10orf10 (11716521_a_at) / RFU C5orf56 (11738089_at) / Fold change /veh C5orf56 (11738089_at) / RFU CYB561 (11721691_x_at) / Fold change /veh CYB561 (11721691_x_at) / RFU ANKRD19P (11752326_a_at) / Fold change /veh ANKRD19P (11752326_a_at) / RFU OR2T12 /// OR2T33 /// OR2T8 (11738714_s_at) / Fold change /veh OR2T12 /// OR2T33 /// OR2T8 (11738714_s_at) / RFU VCAN (11748164_a_at) / Fold change /veh VCAN (11748164_a_at) / RFU JSRP1 (11732532_at) / Fold change /veh JSRP1 (11732532_at) / RFU KRTAP10-11 (11738290_x_at) / Fold change /veh KRTAP10-11 (11738290_x_at) / RFU MYO3A (11730013_a_at) / Fold change /veh MYO3A (11730013_a_at) / RFU EBF3 (11725865_a_at) / Fold change /veh EBF3 (11725865_a_at) / RFU CAMK2N1 (11719241_x_at) / Fold change /veh CAMK2N1 (11719241_x_at) / RFU C5orf56 (11738088_a_at) / Fold change /veh C5orf56 (11738088_a_at) / RFU OLFML3 (11715873_a_at) / Fold change /veh OLFML3 (11715873_a_at) / RFU LOC100653217 /// NTM (11731650_a_at) / Fold change /veh LOC100653217 /// NTM (11731650_a_at) / RFU MAPK11 (11762145_a_at) / Fold change /veh MAPK11 (11762145_a_at) / RFU FIZ1 (11724087_x_at) / Fold change /veh FIZ1 (11724087_x_at) / RFU OASL (11726364_x_at) / Fold change /veh OASL (11726364_x_at) / RFU SOX15 (11748057_x_at) / Fold change /veh SOX15 (11748057_x_at) / RFU CD79A (11719716_a_at) / Fold change /veh CD79A (11719716_a_at) / RFU HIST1H1D (11736915_at) / Fold change /veh HIST1H1D (11736915_at) / RFU CASKIN2 (11723855_a_at) / Fold change /veh CASKIN2 (11723855_a_at) / RFU LOC730098 (11760151_x_at) / Fold change /veh LOC730098 (11760151_x_at) / RFU OR4N2 (11742367_at) / Fold change /veh OR4N2 (11742367_at) / RFU PRRT2 (11749266_a_at) / Fold change /veh PRRT2 (11749266_a_at) / RFU SNX32 (11753110_a_at) / Fold change /veh SNX32 (11753110_a_at) / RFU CDHR5 (11726645_a_at) / Fold change /veh CDHR5 (11726645_a_at) / RFU RCAN1 (11760418_a_at) / Fold change /veh RCAN1 (11760418_a_at) / RFU FAM167A (11723789_a_at) / Fold change /veh FAM167A (11723789_a_at) / RFU FAM26E (11764081_at) / Fold change /veh FAM26E (11764081_at) / RFU ISYNA1 (11749810_s_at) / Fold change /veh ISYNA1 (11749810_s_at) / RFU ACY1 (11761880_at) / Fold change /veh ACY1 (11761880_at) / RFU 11764098_at / Fold change /veh 11764098_at / RFU SAMD14 (11745864_x_at) / Fold change /veh SAMD14 (11745864_x_at) / RFU NPB (11741838_a_at) / Fold change /veh NPB (11741838_a_at) / RFU TMPRSS6 (11731388_a_at) / Fold change /veh TMPRSS6 (11731388_a_at) / RFU KRTAP10-2 (11738614_at) / Fold change /veh KRTAP10-2 (11738614_at) / RFU ARHGAP8 /// PRR5-ARHGAP8 (11727945_x_at) / Fold change /veh ARHGAP8 /// PRR5-ARHGAP8 (11727945_x_at) / RFU KRTAP5-7 /// NADSYN1 (11734609_at) / Fold change /veh KRTAP5-7 /// NADSYN1 (11734609_at) / RFU RASL12 (11751679_a_at) / Fold change /veh RASL12 (11751679_a_at) / RFU CDKN2B (11736163_a_at) / Fold change /veh CDKN2B (11736163_a_at) / RFU PRF1 (11729649_at) / Fold change /veh PRF1 (11729649_at) / RFU, ZNF638 /// ZNF638-IT1 / Fold change vs veh, ZNF638 /// ZNF638-IT1 / RFU, PANK3 / Fold change vs veh, PANK3 / RFU, SH3YL1 / Fold change vs veh, SH3YL1 / RFU, ZEB2 / Fold change vs veh, ZEB2 / RFU, NRIP1 / Fold change vs veh, NRIP1 / RFU, PTTG1IP / Fold change vs veh, PTTG1IP / RFU, CAPN2 / Fold change vs veh, CAPN2 / RFU, MED14 / Fold change vs veh, MED14 / RFU, SNORA58 / Fold change vs veh, SNORA58 / RFU, C1orf63 / Fold change vs veh, C1orf63 / RFU, LRRFIP1 / Fold change vs veh, LRRFIP1 / RFU, NDUFAF7 / Fold change vs veh, NDUFAF7 / RFU, SLC12A2 / Fold change vs veh, SLC12A2 / RFU, IBTK / Fold change vs veh, IBTK / RFU, ESF1 / Fold change vs veh, ESF1 / Fold change vs veh, TMEM50B / RFU, TAOK1 / Fold change vs veh, TAOK1 / RFU, ACBD3 / Fold change vs veh, ACBD3 / RFU, TMA16 / Fold change vs veh, TMA16 / RFU, RWDD3 / Fold change vs veh, RWDD3 / RFU, BCAT1 / Fold change vs veh, BCAT1 / RFU, EDEM3 / Fold change vs veh, EDEM3 / RFU, TMEM33 / Fold change vs veh, TMEM33 / RFU, WDR75 / Fold change vs veh, WDR75 / RFU, AHCTF1 / Fold change vs veh, AHCTF1 / RFU, TFRC / Fold change vs veh, TFRC / RFU, ZDHHC17 / Fold change vs veh, ZDHHC17 / RFU, NOM1 / Fold change vs veh, NOM1 / RFU, ARL8B / Fold change vs veh, ARL8B / RFU, ZBTB11 / Fold change vs veh, ZBTB11 / RFU, TAMM41 / Fold change vs veh, TAMM41 / RFU, KIAA1704 /// LOC100996395 / Fold change vs veh, KIAA1704 /// LOC100996395 / RFU, ING1 / Fold change vs veh, ING1 / RFU, TRMT61B / Fold change vs veh, TRMT61B / RFU, FUBP3 / Fold change vs veh, FUBP3 / RFU, TP53 / Fold change vs veh, TP53 / RFU, TNKS2 / Fold change vs veh, TNKS2 / RFU, ZFP14 / Fold change vs veh, ZFP14 / RFU, ACTR2 / Fold change vs veh, ACTR2 / RFU, PPP3R1 / Fold change vs veh, PPP3R1 / RFU, PIK3R1 / Fold change vs veh, PIK3R1 / RFU, HNRNPA1 / Fold change vs veh, HNRNPA1 / RFU, RNF170 / Fold change vs veh, RNF170 / RFU, ZNF28 / Fold change vs veh, ZNF28 / RFU, RNGTT / Fold change vs veh, RNGTT / RFU, OGT / Fold change vs veh, OGT / RFU, BRD1 / Fold change vs veh, BRD1 / RFU, MARS / Fold change vs veh, MARS / RFU, ZNF655 / Fold change vs veh, ZNF655 / RFU, FAHD1 / Fold change vs veh, FAHD1 / RFU, BDP1 / Fold change vs veh, BDP1 / RFU, LRRCC1 / Fold change vs veh, LRRCC1 / RFU, ARID1A / Fold change vs veh, ARID1A / RFU, ZNF146 / Fold change vs veh, ZNF146 / RFU, ZNF330 / Fold change vs veh, ZNF330 / RFU, GPN3 / Fold change vs veh, GPN3 / RFU, C9orf123 / Fold change vs veh, C9orf123 / RFU, N4BP2L2 / Fold change vs veh, N4BP2L2 / RFU, ARFIP1 / Fold change vs veh, ARFIP1 / RFU, FAM179B / Fold change vs veh, FAM179B / RFU, BCL10 / Fold change vs veh, BCL10 / RFU, UHRF1BP1L / Fold change vs veh, UHRF1BP1L / RFU, BET1 / Fold change vs veh, BET1 / RFU, CNOT2 / Fold change vs veh, CNOT2 / RFU, ZNF268 / Fold change vs veh, ZNF268 / Fold change vs veh, ZNF507 / RFU, DGCR2 / Fold change vs veh, DGCR2 / RFU, WDSUB1 / Fold change vs veh, WDSUB1 / Fold change vs veh, HSP90B1 /// MIR3652 / RFU, ADSS / Fold change vs veh, ADSS / RFU, GK / Fold change vs veh, GK / RFU, ZNF148 / Fold change vs veh, ZNF148 / RFU, TAF9 / Fold change vs veh, TAF9 / RFU, SLC1A5 / Fold change vs veh, SLC1A5 / RFU, SLMO2 / Fold change vs veh, SLMO2 / RFU, ABCC4 / Fold change vs veh, ABCC4 / RFU, LOC101060439 /// RAP1B / Fold change vs veh, LOC101060439 /// RAP1B / RFU, RFX7 / Fold change vs veh, RFX7 / RFU, GTPBP10 / Fold change vs veh, GTPBP10 / RFU, CNEP1R1 / Fold change vs veh, CNEP1R1 / RFU, BIVM-ERCC5 /// ERCC5 / Fold change vs veh, BIVM-ERCC5 /// ERCC5 / RFU, ILF3 / Fold change vs veh, ILF3 / RFU 11762660_at / Fold change /veh 11762660_at / RFU VCAN (11757783_s_at) / Fold change /veh VCAN (11757783_s_at) / RFU DDX43 (11728927_at) / Fold change /veh DDX43 (11728927_at) / RFU KRT8 (11758188_x_at) / Fold change /veh KRT8 (11758188_x_at) / RFU NKD1 (11759106_at) / Fold change /veh NKD1 (11759106_at) / RFU SRD5A1 (11742802_a_at) / Fold change /veh SRD5A1 (11742802_a_at) / RFU TPSAB1 /// TPSB2 (11721975_s_at) / Fold change /veh TPSAB1 /// TPSB2 (11721975_s_at) / RFU GSTM3 (11746129_a_at) / Fold change /veh GSTM3 (11746129_a_at) / RFU IL23R (11737362_x_at) / Fold change /veh IL23R (11737362_x_at) / RFU TMEM51 (11727254_a_at) / Fold change /veh TMEM51 (11727254_a_at) / RFU PIWIL2 (11732686_x_at) / Fold change /veh PIWIL2 (11732686_x_at) / RFU ORM1 (11744905_x_at) / Fold change /veh ORM1 (11744905_x_at) / RFU CCDC152 (11743942_at) / Fold change /veh CCDC152 (11743942_at) / RFU ECM1 (11717891_a_at) / Fold change /veh ECM1 (11717891_a_at) / RFU IL23R (11748794_a_at) / Fold change /veh IL23R (11748794_a_at) / RFU TNFAIP8L3 (11732012_x_at) / Fold change /veh TNFAIP8L3 (11732012_x_at) / RFU MBOAT4 (11741988_at) / Fold change /veh MBOAT4 (11741988_at) / RFU 11764193_at / Fold change /veh 11764193_at / RFU TMEM53 (11763286_at) / Fold change /veh TMEM53 (11763286_at) / RFU MAGEB2 (11727129_at) / Fold change /veh MAGEB2 (11727129_at) / RFU TMEM200A (11744735_a_at) / Fold change /veh TMEM200A (11744735_a_at) / RFU CCDC152 (11751479_a_at) / Fold change /veh CCDC152 (11751479_a_at) / RFU FAM211A (11726209_a_at) / Fold change /veh FAM211A (11726209_a_at) / RFU RGS16 (11746705_a_at) / Fold change /veh RGS16 (11746705_a_at) / RFU VCAN (11755009_s_at) / Fold change /veh VCAN (11755009_s_at) / RFU RHOB (11743442_s_at) / Fold change /veh RHOB (11743442_s_at) / RFU RGS16 (11720943_a_at) / Fold change /veh RGS16 (11720943_a_at) / RFU RGS16 (11720944_at) / Fold change /veh RGS16 (11720944_at) / RFU, VPS4B / Fold change vs veh, VPS4B / RFU, CREB1 / Fold change vs veh, CREB1 / RFU, DNAJC13 / Fold change vs veh, DNAJC13 / RFU, GNAQ / Fold change vs veh, GNAQ / RFU, CDK5R1 / Fold change vs veh, CDK5R1 / RFU, ZRANB3 / Fold change vs veh, ZRANB3 / RFU, CUL4A / Fold change vs veh, CUL4A / RFU, CCNY / Fold change vs veh, CCNY / RFU, UFL1 / Fold change vs veh, UFL1 / RFU, COG3 / Fold change vs veh, COG3 / RFU, DIAPH2 / Fold change vs veh, DIAPH2 / RFU, SKA2 / Fold change vs veh, SKA2 / RFU, AFF3 / Fold change vs veh, AFF3 / RFU, LMF1 / Fold change vs veh, LMF1 / RFU, IPO11 / Fold change vs veh, IPO11 / RFU, DFFB / Fold change vs veh, DFFB / RFU, FOXP1 / Fold change vs veh, FOXP1 / RFU, CARD8 / Fold change vs veh, CARD8 / RFU, STRN3 / Fold change vs veh, STRN3 / RFU, ADK / Fold change vs veh, ADK / RFU, RASSF2 / Fold change vs veh, RASSF2 / RFU, WIPF1 / Fold change vs veh, WIPF1 / RFU, LARP1B / Fold change vs veh, LARP1B / RFU, RASA1 / Fold change vs veh, RASA1 / RFU, RB1 / Fold change vs veh, RB1 / RFU, PPFIA1 / Fold change vs veh, PPFIA1 / RFU, MAT2A / Fold change vs veh, MAT2A / RFU, CCT5 / Fold change vs veh, CCT5 / RFU, WDR92 / Fold change vs veh, WDR92 / RFU, CUX1 / Fold change vs veh, CUX1 / RFU, TTC7A / Fold change vs veh, TTC7A / RFU, TMEM135 / Fold change vs veh, TMEM135 / RFU, DEPTOR / Fold change vs veh, DEPTOR / RFU, CPM / Fold change vs veh, CPM / RFU, DNAJB6 / Fold change vs veh, DNAJB6 / RFU, CACNA2D3 / Fold change vs veh, CACNA2D3 / RFU, DTX4 / Fold change vs veh, DTX4 / RFU, TFCP2 / Fold change vs veh, TFCP2 / RFU, GMCL1 /// GMCL1P1 / Fold change vs veh, GMCL1 /// GMCL1P1 / RFU, AEBP2 / Fold change vs veh, AEBP2 / RFU, SNHG1 /// SNORD22 /// SNORD25 /// SNORD26 /// SNORD27 /// SNORD28 /// SNORD29 /// SNORD31 / Fold change vs veh, SNHG1 /// SNORD22 /// SNORD25 /// SNORD26 /// SNORD27 /// SNORD28 /// SNORD29 /// SNORD31 / Fold change (Aza/veh), C12orf56 (ProbeSet 11735607_a_at) / Fold change (ACY-1035/veh), C12orf56 (ProbeSet 11735607_a_at) / Fold change (Aza/veh), FGFR1OP (ProbeSet 11751329_s_at) / Fold change (ACY-1035/veh), FGFR1OP (ProbeSet 11751329_s_at) / Fold change (Aza/veh), VPS36 (ProbeSet 11739960_a_at) / Fold change (ACY-1035/veh), VPS36 (ProbeSet 11739960_a_at) / RFU SYPL1 (11715823_x_at) / Fold change /veh SYPL1 (11715823_x_at) / RFU IGFBP7 (11715501_s_at) / Fold change /veh IGFBP7 (11715501_s_at) / RFU REEP3 (11722064_at) / Fold change /veh REEP3 (11722064_at) / RFU IGLL1 (11728026_x_at) / Fold change /veh IGLL1 (11728026_x_at): dose or concentration left out as unconfirmed
Details: ProbeSet 11720154_at; LIST B

Structure (SMILES): Nc1ncn([C@@H]2O[C@H](CO)[C@@H](O)[C@H]2O)c(=O)n1 [azacitidine]
- Fold change vs veh, NRIP1: 0.86

From paper PMC5218480 (PLoS ONE, 2017)
